Tests used:
Format in all cases: cell-based
[1] = tested on: Methylobacter bovis (CRL 19 PM5) NRRL B-11,217; test: Oxidation by washed cell suspensions of methane-grown cells; settings: methane-grown washed cells, 30° C.; methane to methanol, alkene to 1,2-epoxide
Description: (§1) The pH of the nutrient medium was adjusted to 7.0 by the addition of acid or base and 50 ml samples of the nutrient medium were charged into a plurality of 300 ml shaker flasks. The shaker flasks were inoculated with an inoculating loop of cells from an agar plate containing homogeneous colonies of the microorganisms on the plate (the purity of the isolates was confirmed by microscopic examination. The isolates had been maintained on agar plates under an atmosphere of methane and air having a 1:1 v/v gas ratio which had been transferred evey two weeks. The gaseous phase of the inoculated flasks was then replaced with a gas mixture comprised of methane and air having a ratio of 1:1 on a v/v basis. The inoculated flasks were sealed air tight and were incubated on a rotary shaker of orbital radius 2.5 cm at 250 rpm and at 30° C. for two days until turbidity in the medium had developed.
(§2) The cells were harvested by centrifugation at 10,000×g. at 4° C. for 30 minutes. The cell pellet was washed twice with a 0.15 M phosphate buffer at a pH of 7.0 (containing 0.002 M MgCl2). The washed cells were then suspended in a 0.15 M phosphate buffer at pH 7.0.
(§3) A 0.5 ml sample of each washed cell suspension (2 mg cells) was put into 10 ml vials at 4° C. which were sealed with a rubber cap. The gaseous phase of the vials was removed with vacuum and then was replaced with a gas mixture of the oxidative substrate (e.g., methane) and oxygen at a 1:1 v/v ratio. The vials were then incubated at 30 ° C. on a rotary shaker at 300 rpm. Samples of product (3 μl) were withdrawn periodically with a microsyringe and the products were analyzed by gas chromatography (ionization flame detector column).
(§4) The newly discovered and isolated microorganism strains of the present invention were each grown aerobically in the presence of methane in the manner described above. The methane-grown microbial cells were then washed, recovered and put to use in oxidizing an oxidative substrate by the procedure described above except in the case of a liquid substrate 10 μl of the substrate were used.

[2] = tested on: Methylobacter chroococcum (CRL 23 PM8) NRRL B-11,215; test: as above; settings: methane-grown washed cells, 30° C.; methane to methanol, alkene to 1,2-epoxide
Description: as §1, §2, §3, §4

[3] = tested on: Methylobacter chroococcum (CRL M6) NRRL B-11,214; test: as above; settings: methane-grown washed cells, 30° C.; methane to methanol, alkene to 1,2-epoxide
Description: as §1, §2, §3, §4

[4] = tested on: Methylobacter vinelandii (CRL M5Y) NRRL B-11,218; test: as above; settings: methane-grown washed cells, 30° C.; methane to methanol, alkene to 1,2-epoxide
Description: as §1, §2, §3, §4

[5] = tested on: Methylobacterium organophilum (CRL 26 R6) NRRL B-11,222; test: as above; settings: methane-grown washed cells, 30° C.; methane to methanol, alkene to 1,2-epoxide
Description: as §1, §2, §3, §4

[6] = tested on: Methylococcus capsulatus (CRL 25 PM13) NRRL B-11,221; test: as above; settings: methane-grown washed cells, 30° C.; methane to methanol, alkene to 1,2-epoxide
Description: as §1, §2, §3, §4

[7] = tested on: Methylococcus capsulatus (CRL M1) NRRL B-11,219; test: as above; settings: methane-grown washed cells, 30° C.; methane to methanol, alkene to 1,2-epoxide
Description: as §1, §2, §3, §4

[8] = tested on: Methylococcus minimus (CRL 24 PM12) NRRL B-11,220; test: as above; settings: methane-grown washed cells, 30° C.; methane to methanol, alkene to 1,2-epoxide
Description: as §1, §2, §3, §4

[9] = tested on: Methylocystis parvus (CRL 18 PM4) NRRL B-11,204; test: as above; settings: methane-grown washed cells, 30° C.; methane to methanol, alkene to 1,2-epoxide
Description: as §1, §2, §3, §4

[10] = tested on: Methylomonas agile (CRL 22 PM9) NRRL B-11,209; test: as above; settings: methane-grown washed cells, 30° C.; methane to methanol, alkene to 1,2-epoxide
Description: as §1, §2, §3, §4

[11] = tested on: Methylomonas albus (CRL M8Y) NRRL B-11,207; test: as above; settings: methane-grown washed cells, 30° C.; methane to methanol, alkene to 1,2-epoxide
Description: as §1, §2, §3, §4

[12] = tested on: Methylomonas methanica (CRL 21 PM7) NRRL B-11,206; test: as above; settings: methane-grown washed cells, 30° C.; methane to methanol, alkene to 1,2-epoxide
Description: as §1, §2, §3, §4

[13] = tested on: Methylomonas methanica (CRL M4P) NRRL B-11,205; test: as above; settings: methane-grown washed cells, 30° C.; methane to methanol, alkene to 1,2-epoxide
Description: as §1, §2, §3, §4

[14] = tested on: Methylomonas rosaceus (CRL M7P) NRRL B-11,213; test: as above; settings: 30° C., methane to methanol, alkene to 1,2-epoxide
Description: as §1, §2, §3, §4

[15] = tested on: Methylomonas rubrum (CRL 20 PM6) NRRL B-11,211; test: as above; settings: methane-grown washed cells, 30° C.; methane to methanol, alkene to 1,2-epoxide
Description: as §1, §2, §3, §4

[16] = tested on: Methylomonas rubrum (CRL M6P) NRRL B-11,210; test: as above; settings: methane-grown washed cells, 30° C.; methane to methanol, alkene to 1,2-epoxide
Description: as §1, §2, §3, §4

[17] = tested on: Methylomonas streptobacterium (CRL 17 PM3) NRRL B-11,208; test: as above; settings: methane-grown washed cells, 30° C.; methane to methanol, alkene to 1,2-epoxide
Description: as §1, §2, §3, §4

[18] = tested on: Methylosinus sporium (CRL 16 PM2) NRRL B-11,203; test: as above; settings: methane-grown washed cells, 30° C.; methane to methanol, alkene to 1,2-epoxide
Description: as §1, §2, §3, §4

[19] = tested on: Methylosinus trichosporium (CRL 15 PM1) NRRL B-11,202; test: as above; settings: methane-grown washed cells, 30° C.; methane to methanol, alkene to 1,2-epoxide
Description: as §1, §2, §3, §4

[20] = tested on: Methylomonas rosaceus (CRL M10P) NRRL B-11,212
Description: as §1, §2, §3, §4

[21] = tested on: Methylobacter bovis (CRL M1Y) NRRL B-11,216; test: Oxidation by washed cell suspensions of methane-grown cells; settings: methane-grown washed cells, 30° C.; methane to methanol, alkene to 1,2-epoxide
Description: as §1, with “The inoculated flasks were sealed air tight and were incubated on a rotary shaker of orbital radius 2.5 cm at 250 rpm and at 30° C. for two days until turbidity in the medium had developed.” left out
as §2, §3, §4

[22] = tested on: methane-grown methylotrophic microorganisms; test: Epoxidation by methane-grown cells of the strains of the invention
Description: as §1
The cells were harvested by centrifugation at 10,000×g. at 4° C. for 30 minutes. The cell pellet was washed twice with a 0.15 M phosphate buffer at a pH of 7.0 (containing 0.002 M MgCl2). […]
A 0.5 ml sample of each washed cell suspension (2 mg cells) was put into 10 ml vials at 4° C. which were sealed with a rubber cap. […] Samples of product (3 μl) were withdrawn periodically with a microsyringe and the products were analyzed by gas chromatography (ionization flame detector column). […]

C=C [Ethylene]
Oxidative Conversion Rates [1]: 1.3 μmole/hr/mg protein
Oxidative Conversion Rates [2]: 1.2 μmole/hr/mg protein
Oxidative Conversion Rates [3]: 1.6 μmole/hr/mg protein
Oxidative Conversion Rates [4]: 1.2 μmole/hr/mg protein
Oxidative Conversion Rates [5]: 0.9 μmole/hr/mg protein
Oxidative Conversion Rates [6]: 0.8 μmole/hr/mg protein
Oxidative Conversion Rates [7]: 5.7 μmole/hr/mg protein
Oxidative Conversion Rates [8]: 1.2 μmole/hr/mg protein
Oxidative Conversion Rates [9]: 0.9 μmole/hr/mg protein
Oxidative Conversion Rates [10]: 2.2 μmole/hr/mg protein
Oxidative Conversion Rates [11]: 1.8 μmole/hr/mg protein
Oxidative Conversion Rates [12]: 2.1 μmole/hr/mg protein
Oxidative Conversion Rates [13]: 1.0 μmole/hr/mg protein
Oxidative Conversion Rates [14]: 2.9 μmole/hr/mg protein
Oxidative Conversion Rates [15]: 1.1 μmole/hr/mg protein
Oxidative Conversion Rates [16]: 0.7 μmole/hr/mg protein
Oxidative Conversion Rates [17]: 0.7 μmole/hr/mg protein
Oxidative Conversion Rates [18]: 1.3 μmole/hr/mg protein
Oxidative Conversion Rates [19]: 2.5 μmole/hr/mg protein
Oxidative Conversion Rates [20]: 4.7
Oxidative Conversion Rates [21]: 0.64 μmole/hr/mg protein

C=CCCCC [hexene-1]
epoxide product formation [22]: did not produce any detectable epoxide product

Source: US4347319A, “Microbiological epoxidation process” (priority 1980, dated 1982)
